Test results: US12533321B2, “Polypeptide formulations for oral delivery” (Bhami's Research Laboratory, Pvt. Ltd., priority 2022, dated 2026)

What was measured:
[1] = Pharmacokinetics of Octreotide in albumin crystal sugar truffle shell vs IV, plasma Octreotide by ELISA; type: in vivo, Wistar Rats; conditions: 0.1 mg
Source text: Rats in the oral treatment group was fasted overnight. […] The time of dosage of each animal was noted. […] Biosystems protocol.

[2] = Pharmacokinetics of PTH (1-34) in albumin crystal capsule (Vitamin E) vs IV, plasma PTH (1-34) by ELISA; type: in vivo, Minipigs (Yorkshire); conditions: 0.04 mg
Source text: The PTH (1-34) was processed to prepare albumin microparticles containing PTH according to the procedure mentioned under Example 4. The microparticle of albumin crystals containing PTH was then lyophilized after washing with cold isopropanol. […] The capsule was then closed.
(§1) Pigs in the oral treatment group was either fasted overnight or fed prior to the test sample administration. […] The time of dosage of each animal was noted. […] An antibody, anti-PTH (1-34) was pre-coated onto a 96-well plate. […] The intensity of the yellow color is proportional to the PTH (1-34) amount bound on the plate.

[3] = Pharmacokinetics of PTH (1-34) in albumin crystal sugar truffle shell vs IV, plasma PTH (1-34) by ELISA; type: in vivo, Minipigs (Yorkshire); conditions: 0.04 mg
Source text: The PTH (1-34) was processed to prepare albumin microparticles containing PTH according to the procedure mentioned under Example 4. The microparticle of albumin crystals containing PTH was then lyophilized after washing with cold isopropanol.
as §1

[4] = female, Yorkshire, minipig, plasma, iv
[5] = female, Yorkshire, minipig, plasma, iv, IV, read-out: AUC 0-inf_pred
[6] = female, Yorkshire, minipig, plasma, iv, IV, read-out: AUC 0-t
[7] = female, Yorkshire, minipig, plasma, iv, IV, read-out: AUC t-inf_obs
[8] = female, Yorkshire, minipig, plasma, iv, IV, read-out: AUC t-inf_pred
[9] = female, Yorkshire, minipig, plasma, iv, IV, read-out: MRT 0-inf_obs
[10] = female, Yorkshire, minipig, plasma, iv, IV, read-out: MRT 0-inf_pred
[11] = female, Yorkshire, minipig, plasma, iv, read-out: MRT 0-t
[12] = female, Yorkshire, minipig, plasma, iv, read-out: t½ (converted)

## C[C@@H](O)[C@@H]1NC(=O)[C@H](CCCCN)NC(=O)[C@@H](Cc2c[nH]c3ccccc23)NC(=O)[C@H](Cc2ccccc2)NC(=O)[C@@H](NC(=O)[C@H](N)Cc2ccccc2)CSSC[C@@H](C(=O)N[C@H](CO)[C@@H](C)O)NC1=O (relative stereo) [Octreotide, L-cysteinamide, D-phenylalanyl-L-cysteinyl-L-phenylalanyl-D-tryptophyl-L-lysyl-L-threonyl-N-[2-hydroxy-1-(hydroxy-methyl)propyl]-, cyclic (2→7)-disulfide; [R-(R*,R*)]]
[1]; IV
  Cl_pred: 6.036E−06 (mg)/(ng/ml)/h
  Vss_obs: 0.0001111 (mg)/(ng/ml)
  Vss_pred: 0.0001107 (mg)/(ng/ml)
  Vz_obs: 0.0001106 (mg)/(ng/ml)
  Vz_pred: 0.0001118 (mg)/(ng/ml)
[1]; male, Wistar, rat, in vivo, iv
  C0: 3830 ng/mL
  Cmax: 5390 ng/mL
  Tmax: 2 h
[1]; male, Wistar, rat, in vivo, iv, IV, read-out: AUC 0-inf_obs
  AUC(0-inf): 105000 ng·h/mL
[1]; male, Wistar, rat, in vivo, iv, IV, read-out: AUC 0-inf_pred
  AUC(0-inf): 104000 ng·h/mL
[1]; male, Wistar, rat, in vivo, iv, IV, read-out: AUC 0-t
  AUC(0-t): 74200 ng·h/mL
[1]; male, Wistar, rat, in vivo, iv, IV, read-out: AUC t-inf_obs
  AUC(0-t): 30500 ng·h/mL
[1]; male, Wistar, rat, in vivo, iv, IV, read-out: AUC t-inf_pred
  AUC(0-t): 29400 ng·h/mL
[1]; male, Wistar, rat, in vivo, iv, IV, read-out: MRT 0-inf_obs
  MRT inf: 18.6 h
[1]; male, Wistar, rat, in vivo, iv, IV, read-out: MRT 0-inf_pred
  MRT inf: 18.3 h
[1]; male, Wistar, rat, in vivo, iv, read-out: MRT 0-t
  MRT last: 8.78 h
[1]; male, Wistar, rat, in vivo, iv, read-out: t½ (converted)
  half-life: 12.8 h
[1]; male, Wistar, rat, in vivo, 0 h, IV
  level at 0 h: 3830 ± 1290 ng/mL
[1]; male, Wistar, rat, in vivo, 0.25 h, IV
  level at 0.25 h: 4390 ± 559 ng/mL
[1]; male, Wistar, rat, in vivo, 0.5 h, IV
  level at 0.5 h: 3170 ± 924 ng/mL
[1]; male, Wistar, rat, in vivo, 1 h, IV
  level at 1 h: 4130 ± 1170 ng/mL
[1]; male, Wistar, rat, in vivo, 2 h, IV
  level at 2 h: 5390 ± 356 ng/mL
[1]; male, Wistar, rat, in vivo, 4 h, IV
  level at 4 h: 5150 ± 704 ng/mL
[1]; male, Wistar, rat, in vivo, 8 h, IV
  level at 8 h: 3160 ± 1390 ng/mL

## CC[C@H](C)[C@H](NC(=O)[C@H](CCC(=O)O)NC(=O)[C@H](CO)NC(=O)[C@@H](NC(=O)[C@@H](N)CO)C(C)C)C(=O)N[C@@H](CCC(N)=O)C(=O)N[C@@H](CC(C)C)C(=O)N[C@@H](CCSC)C(=O)N[C@@H](Cc1cnc[nH]1)C(=O)N[C@@H](CC(N)=O)C(=O)N[C@@H](CC(C)C)C(=O)NCC(=O)N[C@@H](CCCCN)C(=O)N[C@@H](Cc1cnc[nH]1)C(=O)N[C@@H](CC(C)C)C(=O)N[C@@H](CC(N)=O)C(=O)N[C@@H](CO)C(=O)N[C@@H](CCSC)C(=O)N[C@@H](CCC(=O)O)C(=O)N[C@@H](CCCN=C(N)N)C(=O)N[C@H](C(=O)N[C@@H](CCC(=O)O)C(=O)N[C@@H](Cc1c[nH]c2ccccc12)C(=O)N[C@@H](CC(C)C)C(=O)N[C@@H](CCCN=C(N)N)C(=O)N[C@@H](CCCCN)C(=O)N[C@@H](CCCCN)C(=O)N[C@@H](CC(C)C)C(=O)N[C@@H](CCC(N)=O)C(=O)N[C@@H](CC(=O)O)C(=O)N[C@H](C(=O)N[C@@H](Cc1cnc[nH]1)C(=O)N[C@@H](CC(N)=O)C(=O)N[C@@H](Cc1ccccc1)C(=O)O)C(C)C)C(C)C [PTH (1-34)]
[2]; IV
  AUMC 0-inf_obs: 4903.835 pg/ml * h^2
  AUMC 0-inf_pred: 4888.052 pg/ml * h^2
  AUMC 0-t/0-inf_obs: 0.779
  AUMC 0-t/0-inf_pred: 0.782
  AUMC t-inf_pred: 1065.980 pg/ml * h^2
  AUMC_0-t: 3822.072 pg/ml * h^2
  AUMC_t-inf obs: 1081.763 pg/ml * h^2
  Cl_obs: 0.000 (mg)/(pg/ml)/h
  Cl_pred: 0.000 (mg)/(pg/ml)/h
  Clast_obs: 0.01543 ng/mL
  Clast_pred: 0.015205 ng/mL
  Lambda_z: 0.233 h⁻¹
  Tlast: 12.000 h
[2]; [4]
  C0: 1.43 ng/mL
  Cmax: 2.9 ng/mL
  Tmax: 9.6 min
[2]; female, Yorkshire, minipig, plasma, iv, IV, read-out: AUC 0-inf obs
  AUC(0-inf): 2.72 ng·h/mL
[2]; [5]
  AUC(0-inf): 2.72 ng·h/mL
[2]; [6]
  AUC(0-t): 2.65 ng·h/mL
[2]; [7]
  AUC(0-t): 0.0664 ng·h/mL
[2]; [8]
  AUC(0-t): 0.0654 ng·h/mL
[2]; [9]
  MRT inf: 1.8 h
[2]; [10]
  MRT inf: 1.8 h
[2]; [11]
  MRT last: 1.44 h
[2]; [12]
  half-life: 2.98 h
[2]; female, Yorkshire, minipig, plasma, 0 h, IV, read-out: Mean PTH (1-34) levels
  level at 0 h: 1.43 ± 0.105 ng/mL
[2]; female, Yorkshire, minipig, plasma, 0.08 h, IV, read-out: Mean PTH (1-34) levels
  level at 0.08 h: 2.82 ± 0.197 ng/mL
[2]; female, Yorkshire, minipig, plasma, 0.16 h, IV, read-out: Mean PTH (1-34) levels
  level at 0.16 h: 2.9 ± 0.307 ng/mL
[2]; female, Yorkshire, minipig, plasma, 0.5 h, IV, read-out: Mean PTH (1-34) levels
  level at 0.5 h: 1.62 ± 0.23 ng/mL
[2]; female, Yorkshire, minipig, plasma, 1 h, IV, read-out: Mean PTH (1-34) levels
  level at 1 h: 0.421 ± 0.126 ng/mL
[2]; female, Yorkshire, minipig, plasma, 2 h, IV, read-out: Mean PTH (1-34) levels
  level at 2 h: 0.165 ± 0.0395 ng/mL
[2]; female, Yorkshire, minipig, plasma, 4 h, IV, read-out: Mean PTH (1-34) levels
  level at 4 h: 0.0908 ± 0.00755 ng/mL
[2]; female, Yorkshire, minipig, plasma, 12 h, IV, read-out: Mean PTH (1-34) levels
  level at 12 h: 0.0154 ± 0.00157 ng/mL
[3]; 0 h, IV
  Mean PTH (1-34) levels: 1429.01 ± 104.61 pg/mL
[3]; 0.08 h, IV
  Mean PTH (1-34) levels: 2822.98 ± 196.91 pg/mL
[3]; 0.16 h, IV
  Mean PTH (1-34) levels: 2898.29 ± 307.43 pg/mL
[3]; 0.5 h, IV
  Mean PTH (1-34) levels: 1619.38 ± 229.76 pg/mL
[3]; 1 h, IV
  Mean PTH (1-34) levels: 421.23 ± 126.34 pg/mL
[3]; 2 h, IV
  Mean PTH (1-34) levels: 164.93 ± 39.5 pg/mL
[3]; 4 h, IV
  Mean PTH (1-34) levels: 90.76 ± 7.55 pg/mL
[3]; 12 h, IV
  Mean PTH (1-34) levels: 15.43 ± 1.57 pg/mL
[3]; IV
  AUMC 0-inf_obs: 4903.835 pg/ml * h^2
  AUMC 0-inf_pred: 4888.052 pg/ml * h^2
  AUMC 0-t: 3822.072 pg/ml * h^2
  AUMC 0-t/0-inf_obs: 0.779
  AUMC 0-t/0-inf_pred: 0.782
  AUMC t-inf_obs: 1081.763 pg/ml * h^2
  AUMC t-inf_pred: 1065.980 pg/ml * h^2
  Cl_obs: 0.000 (mg)/(pg/ml)/h
  Cl_pred: 0.000 (mg)/(pg/ml)/h
  Clast_pred: 0.015205 ng/mL
  Lambda_z: 0.233 h⁻¹
  Tlast: 12.000 h
[3]; [4]
  C0: 1.43 ng/mL
  Cmax: 2.9 ng/mL
  Tmax: 9.6 min
[3]; female, Yorkshire, minipig, plasma, iv, IV, read-out: AUC 0-inf_obs
  AUC(0-inf): 2.72 ng·h/mL
[3]; [5]
  AUC(0-inf): 2.72 ng·h/mL
[3]; [6]
  AUC(0-t): 2.65 ng·h/mL
[3]; [7]
  AUC(0-t): 0.0664 ng·h/mL
[3]; [8]
  AUC(0-t): 0.0654 ng·h/mL
[3]; [9]
  MRT inf: 1.8 h
[3]; [10]
  MRT inf: 1.8 h
[3]; female, Yorkshire, minipig, plasma, iv, read-out: Clast_obs
  level at 12 h: 0.0154 ng/mL
[3]; [11]
  MRT last: 1.44 h
[3]; [12]
  half-life: 2.98 h
